Where no end group is shown, it is not given here.

Experimental findings from patent US20250049914A1, “STEROID ACID-PEPTIDE BASED INTRACELLULAR CARGO DELIVERY” (DEFENCE THERAPEUTICS INC., priority 2021, published 2025) are described below.

One assay concerns JIMT-1 cells. The assay is described as follows: Cas9-GFP delivery with Lipofectamine CRISPRMAX transfection reagent. In kind it is cell-based. The protocol: To assess whether the enhanced intracellular delivery conferred by bile acid-NLS moieties is compatible with other delivery technologies, a delivery experiment in JIMT-1 cells was performed using Lipofectamine™ CRISPRMAX™ Cas9 Transfection Reagent (Thermo Fisher Scientific) according to the manufacturer's protocol, except that the cargo was Cas9-GFP alone or conjugated to/mixed with different bile acid-NLS moieties. The results are shown in Table 3 with GFP fluorescence values being normalized to that of cells incubated with the unconjugated cargo/transfection reagent alone (Cas9-GFP alone). […] Fluorescence microscopy experiments in live cells confirmed that the Cas9-GFP cargoes were successfully delivered to the nucleus of JIMT-1 cells (data not shown).

A further assay has as its system BMDCs. The assay is described as follows: Antigen-presentation assay using the B3Z reporter system, BMDCs. Particulars: BMDCs, OVA admixed, best conjugate: antigen ratio. It counts as cell-based, mouse. The protocol: Mouse bone marrow derived DCs (BMDCs) were generated by flushing the whole marrow from mouse femurs using RPMI™ 1640 supplemented with 10% fetal bovine serum (FBS), 50 U/mL Penicillin-Streptomycin, 2 mM L-glutamine, 10 mM HEPES, 1% MEM Non-essential Amino Acids, 1 mM Sodium Pyruvate, 0.5 mM beta-mercaptoethanol. Following red blood cell lysis, cells were then cultured in media supplemented with 50 ng/mL murine recombinant GM-CSF. The media was changed on days 2, 4, 6 and 8. On day 9, the media was replaced to include recombinant murine GM-CSF and LPS from Escherichia coli 0111 (1 ng/mL) to stimulate DC maturation. Mature DCs were assessed by flow cytometry for their surface expression of CD3, CD19, NK1.1, CD11c, CD80, CD86, and I-A^b.
(§1) Various bile acid-NLS conjugates were screened using the B3Z reporter system. The B3Z cell line is a T-cell hybridoma specific for the H2-K^b-[…] complex. Once activated via its TCR, the LacZ reporter gene (under the NFAT promoter control) is expressed. Briefly, 1.5×10^5 BMDCs or 2.5×10^5 MSCs were co-cultured with 5×10^4 B3Z cells treated with the mixing conditions of ovalbumin (OVA) and bile acid-NLS conjugates for overnight at 37° C. with 5% CO2. The following day, all cells were washed twice with PBS (pH 7.4), and the cell pellets were lysed by adding 100 μL of a lysis buffer containing 0.15 mM chlorophenol red-beta-D-galactopyranoside (CPRG) substrate (Calbiochem, La Jolla, CA), 0.125% NP40 (EMD Sciences, La Jolla, CA), 9 mM MgCl2 (Aldrich, USA) and 100 mM 2-mercaptoethanol in PBS. After a 5- or 24-h incubation at 37° C., absorbance was taken at 570 nm with 636 nm as the reference wavelength. For these experiments, OVA was re-suspended in PBS (pH 7.3) at 5-10 mg/mL. The different bile acid-NLS conjugates were re-suspended in H2O at 10 mg/mL. Bile acid-NLS conjugate: antigen mixtures were prepared at different molar ratios according to Table 1.
Variants of CA-SV40NLS were synthesized in order to explore structure-activity relationships relating to the antigen cross-presentation enhancing activity observed for this conjugate, and therefore a measure of antigen/cargo delivery. More particularly, conjugates having different bile acids conjugated to the SV40NLS peptide (SEQ ID NO: 1) were synthesized and their effect on antigen presentation was evaluated by using the B3Z reporter system with the OVA antigen as described in Example 1. […] In FIG. 11, no increase in antigen cross-presentation in BMDCs over the antigen alone (“OVA”) was observed when OVA was mixed with either unconjugated cholic acid (“CA”) or SV40NLS peptide (“SV40NLS”), although lower sensitivity of the B3Z reporter system as compared to the OT-I CD8 T cell-based assay may have been a factor.
(§2) Further variants of CA-SV40NLS were synthesized in which the SV40NLS peptide was replaced with peptides comprising other NLS's (Table 5) and the antigen presentation activities of the CA-NLS peptide conjugates were evaluated using the B3Z reporter system as described in Example 1. The following conjugate: antigen molar ratios were tested for each conjugate: 2:1, 4:1, 8:1, 12:1 and 22:1. The results in FIGS. 12-15 compare the antigen presentation activities of different conjugates at the conjugate: antigen ratio that yielded the highest B3Z response (OD570) for that conjugate.

The test system of assay [1] is cross-presenting mesenchymal stromal cell line (cpMSC). The experiment in a line: Antigen-presentation assay using the B3Z reporter system, cross-presenting MSC line. In kind it is cell-based. Particulars: cpMSCs, OVA admixed, vs OVA alone or OVA mixed with CA-SV40NLS. Here is the method: as §1, §2

For “CA-HuR: cholic acid conjugated to HuR NLS peptide CGRFSPMGVDHMSGLSGVNVPG (SEQ ID NO: 13) (not fully specified (N-terminus); also: cholic acid conjugate, site not given here)”, the “increase in intracellular Cas9-GFP delivery vs Cas9-GFP/transfection reagent alone” value in the assay on JIMT-1 cells is given as 17 fold. Besides, the “antigen-presentation activity of cholic acid-NLS peptide conjugates (B3Z response)” value in the assay on BMDCs was “high antigen presentation activity”; in assay [1], “strikingly high antigen-presentation activity”.
